As a reminder, the IC50 is the concentration at which inhibition is half-maximal. High values mean weaker potency, low ones greater potency.

SMILES strings stand for the structures.

14 compounds from ChEMBL document CHEMBL3352638, “Improving the MDR reversal activity of 6,17-epoxylathyrane diterpenes” (Bioorg Med Chem, 2014) can be followed below.

Series [1] relates to L5178Y. Nature of the series: Antiproliferative activity against mouse L5178Y cells after 72 hrs by MTT assay. The class given is functional, cell-based. For orientation: Tetrazolium assays rely on reduction of a dye to a coloured formazan, in cell work by metabolically active cells.
For series [2], the system named is L5178Y. Nature of the series: Antiproliferative activity against human MDR1 transfected mouse L5178Y cells after 72 hrs by MTT assay. The class given is functional, cell-based.
For series [3], the target named is T1, ATP-dependent translocase ABCB1 (Homo sapiens, UniProt P08183). Nature of the series: Inhibition of human MDR1 expressed in mouse L5178Y cells assessed as Rhodamine-123 accumulation measured as fluorescence activity at 20 uM after 20 mins by flow cytometry relative to control. It counts as cell-based.
T1 sequence (P08183 whole entry): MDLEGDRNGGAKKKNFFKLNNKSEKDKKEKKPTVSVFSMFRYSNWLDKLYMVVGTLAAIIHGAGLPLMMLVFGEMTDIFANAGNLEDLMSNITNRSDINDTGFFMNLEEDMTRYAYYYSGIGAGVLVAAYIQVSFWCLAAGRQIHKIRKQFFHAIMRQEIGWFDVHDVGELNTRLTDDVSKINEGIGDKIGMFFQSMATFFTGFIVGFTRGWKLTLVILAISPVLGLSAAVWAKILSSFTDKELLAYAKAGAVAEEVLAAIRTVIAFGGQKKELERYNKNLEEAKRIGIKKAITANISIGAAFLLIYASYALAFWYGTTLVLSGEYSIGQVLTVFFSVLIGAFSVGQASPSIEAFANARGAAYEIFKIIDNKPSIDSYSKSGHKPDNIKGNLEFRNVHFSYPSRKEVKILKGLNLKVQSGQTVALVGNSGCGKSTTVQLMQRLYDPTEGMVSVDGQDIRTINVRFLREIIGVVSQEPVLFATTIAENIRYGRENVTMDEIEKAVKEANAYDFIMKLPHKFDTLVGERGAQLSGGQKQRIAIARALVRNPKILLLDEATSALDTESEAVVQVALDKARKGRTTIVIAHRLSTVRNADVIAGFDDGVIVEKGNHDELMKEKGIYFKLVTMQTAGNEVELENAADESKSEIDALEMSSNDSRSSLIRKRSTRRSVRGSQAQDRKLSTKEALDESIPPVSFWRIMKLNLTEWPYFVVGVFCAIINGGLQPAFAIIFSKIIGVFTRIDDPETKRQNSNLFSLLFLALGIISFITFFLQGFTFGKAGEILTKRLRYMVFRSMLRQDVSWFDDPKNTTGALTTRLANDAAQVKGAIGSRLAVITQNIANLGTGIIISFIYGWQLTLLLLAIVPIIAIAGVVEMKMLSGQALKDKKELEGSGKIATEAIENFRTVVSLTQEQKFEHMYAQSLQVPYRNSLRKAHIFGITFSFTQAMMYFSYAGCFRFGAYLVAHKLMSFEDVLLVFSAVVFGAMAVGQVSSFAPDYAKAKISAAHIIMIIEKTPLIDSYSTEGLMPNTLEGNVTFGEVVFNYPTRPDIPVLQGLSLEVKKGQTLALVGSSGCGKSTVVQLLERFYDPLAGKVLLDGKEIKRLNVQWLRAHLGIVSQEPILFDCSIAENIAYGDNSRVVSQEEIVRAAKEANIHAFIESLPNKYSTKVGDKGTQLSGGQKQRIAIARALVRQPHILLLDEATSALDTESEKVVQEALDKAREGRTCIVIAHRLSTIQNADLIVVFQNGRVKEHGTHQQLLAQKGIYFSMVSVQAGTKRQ
Series [4] concerns the target T1, ATP-dependent translocase ABCB1. Nature of the series: Inhibition of human MDR1 expressed in mouse L5178Y cells assessed as Rhodamine-123 accumulation measured as fluorescence activity at 80 uM after 20 mins by flow cytometry relative to control. The class given is cell-based. (In general: In flow cytometry, cells or beads pass a laser one at a time.)
Series [5] deals with L5178Y. The series is described as follows: Antiproliferative activity against human MDR1 transfected mouse L5178Y cells after 48 hrs by MTT assay in presence of doxorubicin. It counts as functional.
Series [6] concerns the target T1, ATP-dependent translocase ABCB1. The series is described as follows: Inhibition of human MDR1 expressed in mouse L5178Y cells assessed as Rhodamine-123 accumulation measured as fluorescence activity at 2 uM after 20 mins by flow cytometry relative to control. It counts as cell-based.
The target is the same in series [7]. The series is described as follows: Inhibition of human MDR1 expressed in mouse L5178Y cells assessed as Rhodamine-123 accumulation measured as fluorescence activity at 40 uM after 20 mins by flow cytometry relative to control. It counts as cell-based.
Series [8] has the same target. Nature of the series: Stimulation of vanadate-sensitive ATPase activity of human MDR1 expressed in Sf9 membrane vesicles assessed as inorganic phosphate production at 2 to 100 uM after 10 mins by colorimetry. The class given is cell membranes. The conditions noted are these: sf9, 10 min.
Series [9] has the same target. Nature of the series: Inhibition of verapamil-stimulated vanadate-sensitive ATPase activity of human MDR1 expressed in Sf9 membrane vesicles assessed as inorganic phosphate production at 2 to 100 uM after 10 mins by colorimetry. The conditions noted are these: sf9, 10 min. It counts as cell membranes.
The target is the same in series [10]. Nature of the series: Inhibition of human MDR1 expressed in mouse L5178Y cells assessed as Rhodamine-123 accumulation after 20 mins by flow cytometry. It counts as cell-based.

In the case of `CC(=O)O[C@@H]1[C@@H]2[C@@H](OC(C)=O)[C@]3(CC[C@H]4[C@@H](/C=C(\C)C(=O)[C@@]2(OC(C)=O)C[C@@H]1C)C4(C)C)CO3`, the IC50 was found to be 79.3 µM in the series with L5178Y [1] and 93.5 µM with L5178Y [2]. Besides, the results for the Ratio in series [3] and in series [4] were 1 and 35, respectively. For the same compound, in the series on L5178Y [5], the CI is given as 0.24.

As to `CC(=O)O[C@@H]1[C@H]2[C@@H](OC(=O)CC(C)C)[C@@H](C)C[C@]2(OC(C)=O)C(=O)/C(C)=C/[C@@H]2[C@H](CC[C@]13CO3)C2(C)C`, the IC50 in the series on L5178Y [1] is 66.8 µM; in the series with L5178Y [2], 92.5 µM. The Ratio in series [3] amounted to 7.8; in series [4] it was 22.6. In addition, in the series on L5178Y [5], the CI came to 0.43.

Consider `CCC(=O)O[C@@H]1[C@@H]2[C@@H](OC(C)=O)[C@]3(CC[C@H]4[C@@H](/C=C(\C)C(=O)[C@@]2(OC(C)=O)C[C@@H]1C)C4(C)C)CO3`, for which the IC50 in the series with L5178Y [1] worked out at 41.6 µM; in the series with L5178Y [2], 43 µM. In addition, the Ratio in series [3] was 1; in series [4], 58.6. Moreover, in the series on L5178Y [5], the CI is given as 0.05.

As to `CCCC(=O)O[C@@H]1[C@@H]2[C@@H](OC(C)=O)[C@]3(CC[C@H]4[C@@H](/C=C(\C)C(=O)[C@@]2(OC(C)=O)C[C@@H]1C)C4(C)C)CO3`, the 50% inhibitory concentration (IC50) with L5178Y [1] was determined as 46.4 µM; in the series with L5178Y [2], 79.4 µM. The Ratio came to 74.3 in series [3], 8 in series [6] and 96.9 in [7]. The CI with L5178Y [5] is 0.2. Further, in series [8], the outcome was Active. Besides, the “inhibition (INH)” value is “Active” in series [9] and “Dose-dependent effect” in series [10].

For `CC(=O)O[C@@H]1[C@H]2[C@@H](OC(=O)c3ccccc3)[C@@H](C)C[C@]2(OC(C)=O)C(=O)/C(C)=C/[C@@H]2[C@H](CC[C@]13CO3)C2(C)C`, the concentration for half-maximal inhibition (IC50) was 50.4 µM with L5178Y [1] and 63.3 µM with L5178Y [2]. The Ratio in series [3] was 80.6; in series [6], 63.4; in series [7], 102.9. In the series on L5178Y [5], the CI turned out to be 0.27. Further, the outcome in [8] was Active. The “inhibition (INH)” value in [9] is on record as “Active”; in series [10] it was “Dose-dependent effect”.

Consider `C/C1=C\[C@@H]2[C@H](CC[C@]3(CO3)[C@H](O)[C@H]3[C@@H](O)[C@@H](C)C[C@]3(O)C1=O)C2(C)C`, for which the IC50 in the series on L5178Y [1] amounted to 80.9 µM; in the series on L5178Y [2] it was 89.2 µM. The results for the Ratio in series [3] and in [4] were 1.5 and 14.8, respectively. Further, the CI in the series with L5178Y [5] is listed as 0.66.

For the compound `C/C1=C\[C@@H]2[C@H](CC[C@]3(CO3)[C@H](OC(=O)c3ccc(C)cc3)[C@H]3[C@@H](OC(=O)c4ccc(C)cc4)[C@@H](C)C[C@]3(O)C1=O)C2(C)C`, the IC50 with L5178Y [1] came out at 36.6 µM; in the series with L5178Y [2], 47.5 µM. Besides, the Ratio was found to be 26.5 in series [3] and 3.3 in [6]. Also, the CI in the series with L5178Y [5] turned out to be 0.29.

`COc1ccc(C(=O)O[C@@H]2[C@@H]3[C@@H](OC(=O)c4ccc(OC)cc4)[C@]4(CC[C@H]5[C@@H](/C=C(\C)C(=O)[C@@]3(O)C[C@@H]2C)C5(C)C)CO4)cc1`: the half-inhibitory concentration (IC50) in the series with L5178Y [1] stood at 76 µM; in the series on L5178Y [2], 86.8 µM. In addition, the results for the Ratio in series [3] and in series [6] were 23.3 and 3, respectively. The CI with L5178Y [5] worked out at 0.36.

Turning to `C/C1=C\[C@@H]2[C@H](CC[C@]3(CO3)[C@H](OC(=O)c3ccccc3)[C@H]3[C@@H](OC(=O)c4ccccc4)[C@@H](C)C[C@]3(O)C1=O)C2(C)C`, the IC50 in the series with L5178Y [1] worked out at 68 µM; with L5178Y [2], 73.3 µM. For the same compound, the Ratio is given as 22.9 in series [3] and 2 in [6]. In the series with L5178Y [5], the CI amounted to 0.24.

As to `C/C1=C\[C@@H]2[C@H](CC[C@]3(CO3)[C@H](OC(=O)c3ccccc3)[C@H]3[C@@H](OC(=O)c4ccccc4)[C@@H](C)C[C@]3(OC(=O)c3ccccc3)C1=O)C2(C)C`, the results for the half-maximal inhibitory concentration (IC50) in the series with L5178Y [1] and with L5178Y [2] were 40.4 µM and 59 µM, respectively. Besides, the Ratio is listed as 35.2 in series [3] and 1.7 in series [6]. In addition, the CI in the series on L5178Y [5] is on record as 0.79.

For `C/C1=C\[C@@H]2[C@H](CC[C@]3(CO3)[C@H](O)[C@H]3[C@@H](OC(=O)/C=C/c4ccccc4)[C@@H](C)C[C@]3(O)C1=O)C2(C)C`, the concentration for half-maximal inhibition (IC50) with L5178Y [1] was 108 µM; with L5178Y [2] it was 105 µM. Moreover, the Ratio in [3] is given as 7.4; in series [6] it was 3.7. For the same compound, the CI in the series with L5178Y [5] is 1.4.

With `C/C1=C\[C@@H]2[C@H](CC[C@]3(CO3)[C@H](OC(=O)Cc3ccccc3)[C@H]3[C@@H](OC(=O)Cc4ccccc4)[C@@H](C)C[C@]3(O)C1=O)C2(C)C`, the concentration for half-maximal inhibition (IC50) stood at 111 µM in the series on L5178Y [1] and 123 µM in the series on L5178Y [2]. Besides, the Ratio in series [3] was found to be 73.4; in series [6], 3.9; in [7], 80.8. For the same compound, in the series with L5178Y [5], the CI was found to be 1.38. In addition, the “inhibition (INH)” value in series [10] is reported as “Dose-dependent effect”.

Regarding `CCCCC(CC)C(=O)O[C@@H]1[C@@H]2[C@@H](OC(=O)C(CC)CCCC)[C@]3(CC[C@H]4[C@@H](/C=C(\C)C(=O)[C@@]2(O)C[C@@H]1C)C4(C)C)CO3` (some centres not stated), the IC50 in the series on L5178Y [1] came to 37 µM; with L5178Y [2], 46.6 µM. Further, the Ratio worked out at 33.2 in series [3] and 5.6 in series [6]. The CI in the series on L5178Y [5] amounted to 0.46.

Take `CCCC(=O)O[C@@H]1[C@@H]2[C@@H](OC(=O)CCC)[C@]3(CC[C@H]4[C@@H](/C=C(\C)C(=O)[C@@]2(OC(=O)CCC)C[C@@H]1C)C4(C)C)CO3`: the values for the IC50 in the series on L5178Y [1] and in the series with L5178Y [2] were 56.4 µM and 84.4 µM, respectively. Also, the Ratio in series [3] is reported as 83.7; in series [6], 1.5; in series [7], 98. Also, the CI in the series with L5178Y [5] worked out at 0.33. Besides, the “inhibition (INH)” value in [10] is on record as “Dose-dependent effect”.
